Target: T1, aryl hydrocarbon receptor (AHR) (Homo sapiens, UniProt P35869)
T1 sequence (P35869 11-848): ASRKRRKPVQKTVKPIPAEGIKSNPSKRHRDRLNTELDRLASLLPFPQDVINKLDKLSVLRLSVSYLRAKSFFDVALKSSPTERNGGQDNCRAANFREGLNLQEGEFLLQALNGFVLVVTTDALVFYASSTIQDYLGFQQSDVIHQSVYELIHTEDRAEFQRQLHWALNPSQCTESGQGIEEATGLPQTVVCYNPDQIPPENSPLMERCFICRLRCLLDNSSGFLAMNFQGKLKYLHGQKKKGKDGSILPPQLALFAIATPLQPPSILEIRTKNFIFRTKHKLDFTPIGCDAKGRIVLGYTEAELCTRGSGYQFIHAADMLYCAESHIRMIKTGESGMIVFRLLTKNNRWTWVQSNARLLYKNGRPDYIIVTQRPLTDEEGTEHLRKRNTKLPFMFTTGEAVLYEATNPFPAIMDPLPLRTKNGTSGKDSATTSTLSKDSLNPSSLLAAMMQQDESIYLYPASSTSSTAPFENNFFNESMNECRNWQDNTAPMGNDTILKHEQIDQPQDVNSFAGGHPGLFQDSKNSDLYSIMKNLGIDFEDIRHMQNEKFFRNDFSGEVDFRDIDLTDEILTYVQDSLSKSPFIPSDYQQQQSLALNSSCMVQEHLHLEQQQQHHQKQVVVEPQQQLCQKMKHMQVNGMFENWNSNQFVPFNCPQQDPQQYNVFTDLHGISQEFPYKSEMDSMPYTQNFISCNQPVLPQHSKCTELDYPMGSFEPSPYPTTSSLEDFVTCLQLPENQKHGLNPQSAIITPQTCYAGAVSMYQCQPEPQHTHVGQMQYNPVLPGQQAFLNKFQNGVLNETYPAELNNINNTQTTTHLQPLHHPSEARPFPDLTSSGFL
Experiment: DRE-Luciferase reporter high-throughput screen (AHR antagonist, VAF347-activated)
Source text: HepG2 hepatocellular carcinoma cells were transfected with a dioxin-response element (DRE) Firefly luciferase reporter construct. Luciferase transcription was activated with the aryl hydrocarbon receptor (AHR) agonist, VAF347. Addition of an AHR antagonist results in inhibition of the luciferase transcription and a loss of signal in the assay.
HepG2, a hepatocellular carcinoma cell line, was transfected with the dioxin-response element Firefly luciferase reporter construct using the TransIT-transfection system. Prior to transfection, HepG2 cells (Sigma) were cultured at 90% confluency in Eagle's Modified Essential Medium (Sigma)+2 mM Glutamine (Sigma), +1^% Non Essential Amino Acids (Sigma)+10% Fetal Bovine Serum (Hyclone) and harvested and counted (Biorad TC20 cell counter). OptilMEM serum-free media and TransIT (Mirus) were mixed for transfection in 150 mm dishes by adding 240 μL Transit to 3.0 mL OptiMEM, vortexing briefly to mix, and incubating at room temperature for 20 minutes. The DNA mixture was prepared by adding 80 μg plasmid (pGudLuc6.1 plasmid, Garrison et al., (1996) Fundam. Appl. Toxicol., 30, 194-203), inverting to mix, and incubating at room temperature for 30 minutes. 30×10^6 HepG2 cells were seeded in 30 mL media and 3.3 mL of the DNA, OptiMEM, and TransIT mixture was added dropwise to the plate. The plate was mixed by rocking and incubated at 37° C./5% CO2 overnight. The next day, cells were harvested by aspirating media, washing once with sterile phosphate buffered saline (PBS, Gibco), trypsinzing with 0.05% Trypsin (Corning) and harvesting cells with culture medium, and freezing with Cell Freezing Media (Gibco) at 5 50×10^6 cells/vial in 1 mL/vial.
Transiently-transfected frozen HepG2 cells with DRE-Luciferase, were thawed in a 37° C. water bath and resuspended in complete media. 4 μL cells at 15,000 cells per well was transferred into the wells of a 1536-well Alphaplate assay plate (PerkinElmer) using TEMPEST liquid dispenser. The plate was centrifuged at 1000 rpm for 1 minute. 30 nL of the controls (1 μM (S)-2-(6-((2-(1H-indol-3-yl)ethyl)amino)-2-(5-fluoropyridin-3-yl)-9H-purin-9-yl)propan-1-ol or 100% DMSO) were transferred to the assay plate using the Pin Tool on BRAVO. 1 μL of VAF347 (15 nM final concentration) in complete media was added to the wells using TEMPEST. The plate was centrifuged at 1000 rpm for 1 minute and incubated at 37° C./5% CO2 overnight. After incubation, the plate was removed from the incubator and brought to room temperature. 2 μL of room temperature Steady-Glo luciferase detection reagent (Promega) was added to the wells with TEMPEST. The plate was centrifuged at 2000 rpm for 1 minute, sealed with clear plastic seal and kept at room temperature for 15 minutes prior to measuring luminescence on ENVISION.
Approximately 166,000 compounds were screened in 132 1536-well plates in the luciferase reporter gene assay at a final concentration of 12 μM. […] Each compound was tested at 0.1 μM, 1.0 μM, and 10 μM in the DRE luciferase assay and Cell Titer Glo cytotoxicity assay (Promega). […] 512 compounds were selected for 10-point dose-response in the AHR luciferase reporter assay and the Cell Titer Glo cytotoxicity assay.

SMILES | IC50
C#CCOc1ccc(C(=O)Nc2cccc(OC)c2)cc1 [1A] | > 2000 nM
O=C(Nc1ccc(-c2cnc(C3CC3)o2)cc1)c1cccc(F)c1 [2A] | > 2000 nM
CSc1ccccc1NC(=O)c1ccc(-c2ccccc2)cc1 [4B] | > 2000 nM
CCCCc1ccc(C(=O)Nc2ccccc2O)cc1 [8A] | > 2000 nM
Cc1cc(C)n(-c2ccc(NC(=O)c3ccc(OC(F)F)cc3)cc2F)n1 [9A] | > 2000 nM
O=C(Nc1ccc(N2CCC(C(F)(F)F)CC2)nc1)c1cccc(Cl)c1 [13A] | > 2000 nM
CSc1nccc(NC(=O)c2cccc(C(F)(F)F)c2)n1 [14A] | > 2000 nM
COc1ccc(NC(=O)c2ccc(C(F)(F)F)[nH]c2=O)cn1 [18A] | > 2000 nM
CS(=O)(=O)c1csc(C(=O)Nc2cccc(Cl)c2)c1Cl [18B] | > 2000 nM
Cc1cc(NC(=O)c2nnn(-c3ccccc3)c2C)no1 [19B] | > 2000 nM
Cc1ccc(NC(=O)c2cc(C(C)C)n[nH]2)cc1 [24A] | > 2000 nM
Cc1ccc(C(=O)Nc2cc(C(C)(C)C)on2)cc1 [25A] | > 2000 nM
Cc1c(C(=O)Nc2ccccc2)nnn1Cc1ccccc1 [26A] | 1000 to 2000 nM
Cn1ccc(NC(=O)c2cc(-c3cccc(Cl)c3)[nH]n2)n1 [31A] | > 2000 nM
N#Cc1c(NC(=O)c2cnn3cccnc23)sc2c1CCC2 [32B] | 1000 to 2000 nM
CCn1cc(C(=O)Nc2ccc(Br)cn2)cn1 [33A] | > 2000 nM
Cc1nc(NC(=O)c2cc(C(C)(C)C)n[nH]2)sc1SCC#N [34A] | > 2000 nM
COc1ccc(OCc2nc(-c3cccc(F)c3)cs2)cc1 [34B] | 1000 to 2000 nM
O=C(Nc1ccc2ccccc2c1)c1cccc(NC(=O)C(F)(F)F)c1 [35A] | 1000 to 2000 nM
COc1ccc(Br)cc1-c1nc(Cn2cnc(C#N)n2)cs1 [35B] | > 2000 nM
CS(=O)(=O)Nc1cccc(C(=O)Nc2cccc3cccnc23)c1 [36A] | 1000 to 2000 nM

SMILES | IC50
Cn1c(N)c(-c2csc(-c3cccc(Cl)c3)n2)c(=O)n(C)c1=O [36B] | 1000 to 2000 nM
CC(C)c1nc2ccc(NC(=O)c3ccc(F)cc3)cc2[nH]1 [37A] | 1000 to 2000 nM
Cc1cccc(NC(=O)c2ccc3c(c2)CC(C)O3)c1 (stereo not drawn) [38A] | > 2000 nM
O=C(Nc1ccc2c(c1)ncn2-c1ccccc1)c1ccc(Cl)cc1 [39A] | 1000 to 2000 nM
CCn1c(-c2csc(N(C(C)=O)c3ccccc3)n2)nc2ccccc21 [39B] | 1000 to 2000 nM
Cc1[nH]c2c(C(=O)Nc3cccc(CN4CCOC4=O)c3)cccc2c1C [40A] | 1000 to 2000 nM
CNc1nc(-c2sc3ncnn3c2C)cs1 [40B] | 1000 to 2000 nM
O=C(Nc1ccc2[nH]c(-c3ccc(Br)o3)nc2c1)c1ccc([N+](=O)[O-])cc1 [41A] | > 2000 nM
O=C(Cn1cnnn1)N(CCc1ccccc1)c1nc(-c2ccccc2)cs1 [41B] | 1000 to 2000 nM
O=C(CN1CCCCCC1)Nc1sc2c(c1C(=O)Nc1ccc(Br)cc1)CCC2 [42A] | 1000 to 2000 nM
CC(=O)Nc1ccc(NC(=O)c2cccc3c2OCC3)cc1 [43A] | 1000 to 2000 nM
C/C(=N\NC(=O)c1ccco1)c1ccc(Cl)c(Cl)c1 [43B] | > 2000 nM
COc1cccc(Cn2c3c(cc(NC(=O)c4ccc(C)cc4)c2=O)C(=O)CCC3)c1 [44A] | 1000 to 2000 nM
COc1ccc([N+](=O)[O-])cc1-c1ccc(/C=N/Nc2ccccc2)o1 [44B] | 1000 to 2000 nM
O=C(Nc1cc(=O)c2ccccc2o1)c1ccc(Cl)cc1 [45A] | > 2000 nM
FC(F)(F)c1ccc(N/N=C/c2ccc(Cl)cc2)nc1 [45B] | 1000 to 2000 nM
CCCn1cnc(-c2nc(C(=O)Nc3cc(C)ccc3C)c3ccccn23)c1 [46A] | 1000 to 2000 nM
Cc1cccc(NC(=O)c2nc(-c3cn(CC4CCCO4)cn3)n3ccccc23)c1 (stereo not drawn) [47A] | > 2000 nM
COc1ccc(Nc2cc(C)nc(-c3ccccc3O)n2)cc1 [47B] | 1000 to 2000 nM
CCn1cnc(-c2nc(C(=O)Nc3cccc(F)c3)c3ccccn23)c1 [48A] | > 2000 nM
Cc1nc(NC(=O)c2cc3nc(N(C)C)n(-c4ccccc4)c3s2)sc1C [49A] | 1000 to 2000 nM

Other lines, results leading:

IC50 | SMILES
1000 to 2000 nM | COc1ccc(C(=O)Nc2cccc(F)c2)cc1C [1B]
1000 to 2000 nM | COc1ccc(C(=O)Nc2ccc(C)c(F)c2)cc1 [2B]
1000 to 2000 nM | CCc1nnc(-c2ccc(NC(=O)c3ccccc3OC)cc2)o1 [3A]
200 to 500 nM | O=C(Nc1ccc(-c2cnco2)cc1)c1ccc(F)cc1F [3B]
1000 to 2000 nM | O=C(Nc1cccc(Cl)c1)c1ccc(-n2cccn2)c([N+](=O)[O-])c1 [4A]
1000 to 2000 nM | N#Cc1cccnc1Oc1ccc(NC(=O)c2ccc(F)cc2F)cc1 [5A]
500 to 1000 nM | O=C(Nc1ccc(OC(F)F)c(Cl)c1)c1cccc(Cl)c1 [5B]
1000 to 2000 nM | O=C(Nc1ccc(OC(F)(F)F)cc1)c1ccc(F)cc1 [6A]
500 to 1000 nM | CCC(=O)Nc1ccc(Cl)c(NC(=O)c2ccc(OC(C)C)cc2)c1 [6B]
1000 to 2000 nM | N#Cc1ccc(C(=O)Nc2ccc(Cl)c(C#N)c2)cc1 [7A]
1000 to 2000 nM | CCOc1ccc(C(=O)Nc2ccccc2C(N)=O)cc1 [7B]
500 to 1000 nM | Cc1ccc(C(=O)Nc2ccc(Br)c(C)n2)c(Cl)c1 [8B]
1000 to 2000 nM | COc1ccc(C(=O)Nc2cc(C)cc(C)n2)cc1 [9B]
1000 to 2000 nM | O=C(Nc1ccc(-c2nccs2)cc1)c1ccc(CN2C(=O)CNC2=O)cc1 [10A]
200 to 500 nM | COc1ccc(Cl)cc1C(=O)Nc1ccc(NC(=O)c2cccc(S(C)(=O)=O)c2)c(Cl)c1 [10B]
500 to 1000 nM | CCOc1ccc(NC(=O)c2c(C)coc2C)cc1 [11B]
1000 to 2000 nM | CCN(CC)c1ccc(NC(=O)c2cccnc2O)cc1 [12A]
1000 to 2000 nM | Cc1ccccc1NC(=O)c1cc(-c2cnc(-c3ccccc3)nc2)cn1C [12B]
500 to 1000 nM | Cc1noc(C)c1C(=O)Nc1ccc(-c2ccccc2)cc1 [13B]
500 to 1000 nM | O=C(Nc1nc(-c2ccc(F)cc2)n[nH]1)c1cc(F)cc(F)c1 [14B]
1000 to 2000 nM | Cc1cc(C)c2oc(-c3cccc(NC(=O)c4cccnc4)c3C)nc2c1 [15A]
500 to 1000 nM | O=C(Nc1ccc(Cl)cc1)c1ccc(-c2ccccn2)s1 [15B]
1000 to 2000 nM | COc1cccc(C(=O)Nc2cnc(-c3ccccc3)nc2)c1 [16A]
1000 to 2000 nM | CNC(=O)c1ccsc1NC(=O)c1cccc(Oc2ccccc2)c1 [16B]
1000 to 2000 nM | O=C(Nc1ncccc1Br)c1cc(-n2cccn2)ccn1 [17A]
500 to 1000 nM | O=C(Nc1ccc(C(F)(F)F)oc1=O)c1ccc(Cl)cc1 [17B]
1000 to 2000 nM | Cc1c(Cl)cccc1NC(=O)c1occc1COc1ccccc1 [19A]

IC50 | SMILES
1000 to 2000 nM | CCOC(=O)c1c(N)sc(C(=O)Nc2cccc(C(F)(F)F)c2)c1C [20A]
500 to 1000 nM | COc1c(C(=O)Nc2ccc(Cl)cc2)ccc2ccccc12 [20B]
1000 to 2000 nM | CC(=O)c1ccc(C(=O)Nc2ccc(C)cc2Cl)s1 [21A]
1000 to 2000 nM | O=C(Nc1cc2c(s1)CCCC2)c1ccccc1 [21B]
1000 to 2000 nM | Cc1nn(C(=O)Nc2ccccc2)c(C)c1Oc1ccccc1 [22A]
1000 to 2000 nM | Cc1ccc(C(=O)Nc2nc3c(C)cc(C)cc3s2)cc1 [22B]
1000 to 2000 nM | CCn1cc(C(=O)Nc2ccc(C(C)C)cc2)cn1 [23A]
1000 to 2000 nM | O=C(Nc1cc2ccccc2s1)c1ccccc1 [23B]
500 to 1000 nM | Cn1nc(C(F)(F)F)c2cc(C(=O)Nc3ccc(F)cc3)sc21 [24B]
200 to 500 nM | COc1ccc2[nH]c(C(=O)Nc3ccc(Br)c(C)n3)cc2c1 [25B]
500 to 1000 nM | O=C(Nc1ccc(Cl)cn1)C1Cc2ccccc2C1 [26B]
1000 to 2000 nM | O=C(Nc1nnc(-c2ccc(F)cc2)[nH]1)c1ccc(S(=O)(=O)C(F)F)cc1 [27A]
1000 to 2000 nM | COc1ccccc1C(=O)Nc1c(C)cc(C)c2cccnc12 [27B]
1000 to 2000 nM | N#Cc1cc(F)c(NC(=O)c2nsc(Cl)c2Cl)cc1F [28A]
200 to 500 nM | Cc1ccc(NC(=O)c2cc3c(=O)[nH]c(=O)n(C)c3nc2C)cc1Cl [28B]
1000 to 2000 nM | CC(=O)c1cc(NC(=O)c2ccc(Cl)cc2)c(=O)n(Cc2ccc(Cl)cc2)c1C [29A]
1000 to 2000 nM | Cc1ccc(NC(=O)c2cc3ccccc3n(C)c2=O)cc1 [29B]
1000 to 2000 nM | CCc1c(C(=O)Nc2c(C)nn(-c3ccccc3)c2C)cnn1-c1ccc([N+](=O)[O-])cc1 [30A]
1000 to 2000 nM | COc1ccc(NC(=O)c2noc3c2CC(C)CC3)cc1 (stereo not drawn) [30B]
1000 to 2000 nM | CCC1CCc2c(sc(NC(=O)c3c(C)noc3C)c2C(N)=O)C1 (stereo not drawn) [31B]
1000 to 2000 nM | O=C(Nc1ccc(N2CCc3sccc3C2)nc1)c1cc(Br)c[nH]1 [32A]
200 to 500 nM | N#Cc1ccc(-c2csc(-c3ccsc3)n2)cc1 [33B]
200 to 500 nM | O=C(c1csc(-c2ccsc2)n1)N1CCCc2cc(C(F)(F)F)ccc21 [37B]
500 to 1000 nM | Clc1ccc(-c2csc(-c3ccc4c(c3)CCO4)n2)s1 [38B]
200 to 500 nM | Cn1nc(N2CCN(c3ccccc3Cl)CC2)c(=O)n(C)c1=O [42B]
200 to 500 nM | FC(F)(F)c1ccc(CSc2nccc(-c3cccnc3)n2)cc1 [46B]
500 to 1000 nM | O=[N+]([O-])c1cccc(-c2ccc(SCc3ccccc3F)nn2)c1 [48B]

— patent US20210220408A1, “ARYL HYDROCARBON RECEPTOR ANTAGONISTS AND METHODS OF USE” (Magenta Therapeutics Inc., priority 2018, published 2021)
